Measured values: patent US9216964B2, “Hedgehog pathway modulators” (Novartis AG, priority 2008, dated 2015)
Read-outs that look alike come from different tables or passages of the source.

System: hedgehog signaling pathway
Experiment: Gli-Luc Reporter Assay for Hh Pathway Inhibition (TMHh-12 cells, pTA-8×Gli-Luc reporter)
Assay type: cell-based, Mouse
Procedure, shortened: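 Mouse TM3 cells stably carrying an 8×Gli-firefly luciferase reporter, in 2% FBS medium; pathway activated with recombinant mouse Shh (8 μg/mL) or Smo agonist, compounds added at varying concentrations for 48 h. Luminescence read; IC50 at 50% signal reduction. Toxicity checked in TM3 cells (CellTiter-Glo) or constitutive-luciferase TM3-Luc cells.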

[1] = Mus musculus, TMHh12, enzymatic and cellular assays for the inhibition of hedgehog signaling pathways, read-out: IC50 Ranges
[2] = Mus musculus, TMHh12, Ag1.5 1 nM, read-out: Hedgehog Inhibition IC50 (nM) (Ag1.5 1 nM)

Row | SMILES | IC50 [1] | IC50 [2] | IC50 (enzymatic and cellular assays for the inhibition of hedgehog signaling pathways, read-out: IC50 Ranges)
1 | CCN1CCC(N2CCc3c(cccc3Nc3ccc(Cl)c(-c4ncc(-c5ccccc5)[nH]4)c3)C2)CC1 [Compound 6] | 0.001 to 1 nM |  | 
2 | Cc1ccc(Nc2nccc3c2CCN(C2CS(=O)(=O)C2)C3)cc1-c1cc2ccccc2cn1 [Compound 332] | 10 to 100 nM |  | 
3 | CCOc1ccc(-c2cc(Nc3cccc4c3CCN(CCS(=O)(=O)CC)C4)ccc2C)nn1 [Compound 297] | 1 to 10 nM |  | 
4 | CNC(=O)c1ccc(Nc2cccc3c2CCN(S(C)(=O)=O)C3)cc1-c1ccc(C#N)cc1 [Compound 180] | 100 to 1000 nM |  | 
5 | CS(=O)(=O)CC(=O)N1CCc2c(cccc2Nc2ccc(Cl)c(-c3ncc(-c4ccccc4)[nH]3)c2)C1 [Compound 7] | 0.001 to 1 nM | 0.25 nM | 
6 | CC(C)N1CCC(N2CCc3c(cccc3Nc3ccc(Cl)c(-c4ncc(-c5ccccc5)[nH]4)c3)C2)CC1 [Compound 36] | 0.001 to 1 nM |  | 
7 | CCOc1cnc(-c2cc(Nc3cccc4c3CCN(C3CS(=O)(=O)C3)C4)ccc2C)cn1 [Compound 313] | 1 to 10 nM |  | 
8 | Cc1ccc(-c2cc(Nc3ncnc4c3CCN(C3CS(=O)(=O)C3)C4)ccc2C)nc1 [Compound 288] | 10 to 100 nM |  | 
9 | Cc1ccc(Nc2cccc3c2CCN(S(C)(=O)=O)C3)cc1-c1cnc(N(C)C)cn1 [Compound 253] | 1 to 10 nM |  | 
10 | OCC(O)CN1CCC(N2CCc3c(cccc3Nc3ccc(Cl)c(-c4ncc(-c5ccccc5)[nH]4)c3)C2)CC1 (centres unmarked) [Compound 40] | 0.001 to 1 nM |  | 
11 | CCOc1cnc(-c2cc(Nc3cccc4c3CCN(CCS(C)(=O)=O)C4)ccc2C)cn1 [Compound 310] | 1 to 10 nM |  | 
12 | Cc1ccc(Nc2cccc3c2CCN(CC(C)(C)F)C3)cc1-c1ccc(F)cn1 [Compound 182] | 1 to 10 nM |  | 
13 | COc1cnc(-c2cc(Nc3cccc4c3CCN(CCS(C)(=O)=O)C4)ccc2C)cn1 [Compound 264] | 1 to 10 nM |  | 
14 | CCOc1cnc(-c2nc(Nc3cccc4c3CCN(S(=O)(=O)CC)C4)ccc2C)cn1 [Compound 330] | 1 to 10 nM |  | 
15 | OC[C@H](O)CN1CCc2c(cccc2Nc2ccc(Cl)c(-c3ncc(-c4ccccc4)[nH]3)c2)C1 [Compound 18] | 0.001 to 1 nM |  | 
16 | Cc1ccc(Nc2cccc3c2CCN(S(C)(=O)=O)C3)cc1-c1ccc(C#N)cc1 [Compound 102] | 1 to 10 nM |  | 
17 | O=C(N1CCc2c(cccc2Nc2ccc(Cl)c(-c3ncc(-c4ccccc4)[nH]3)c2)C1)C1(O)CC1 [Compound 74] | 0.001 to 1 nM |  | 
18 | CCS(=O)(=O)CCN1CCc2c(cccc2Nc2ccc(C)c(-c3ccc(F)cn3)c2)C1 [Compound 281] | 1 to 10 nM |  | 
19 | Cc1ccc(Nc2cccc3c2CCN(S(C)(=O)=O)C3)cc1-c1ccccn1 [Compound 189] | 0.001 to 1 nM |  | 
20 | Cc1c(Nc2cccc3c2CCN(S(C)(=O)=O)C3)cccc1-c1ccc(C#N)cc1 [Compound 90] | 100 to 1000 nM | 490 nM | 
21 | Cc1ccc(Nc2ncnc3c2CCN(S(=O)(=O)C(C)C)C3)cc1-c1ccc(F)cn1 [Compound 300] | 0.001 to 1 nM |  | 
22 | CCOc1ccc(-c2nc(Nc3cccc4c3CCN(S(=O)(=O)C(C)C)C4)ccc2C)nn1 [Compound 328] | 1 to 10 nM |  | 
23 | O=C([C@H](O)CO)N1CCc2c(cccc2Nc2ccc(Cl)c(-c3nc(-c4ccccc4)c[nH]3)c2)C1 [Compound 38] | 0.001 to 1 nM |  | 
24 | Cc1ccc(Nc2cccc3c2CCN(S(C)(=O)=O)C3)cc1OCc1ccc(C#N)cc1 [Compound 166] | 10 to 100 nM |  | 

Row | SMILES | IC50 [1] | IC50 [2] | IC50 (enzymatic and cellular assays for the inhibition of hedgehog signaling pathways, read-out: IC50 Ranges)
25 | CN(C)CC(C)(C)CN1CCc2c(cccc2Nc2ccc(Cl)c(-c3ncc(-c4ccccc4)[nH]3)c2)C1 [Compound 54] | 0.001 to 1 nM |  | 
26 | Cc1ccc(-c2nc(Nc3cccc4c3CCN(CCS(C)(=O)=O)C4)ccc2C)nc1 [Compound 309] | 10 to 100 nM |  | 
27 | Cc1ccc(Nc2cccc3c2CCN(S(C)(=O)=O)C3)cc1-c1ccc(CC#N)cc1 [Compound 139] | 100 to 1000 nM | 101 nM | 
28 | Cc1ccc(-c2cc(Nc3cccc4c3CCN(S(C)(=O)=O)C4)ccc2C)nn1 [Compound 170] | 1 to 10 nM |  | 
29 | CC1(C)CC(N2CCc3c(cccc3Nc3ccc(Cl)c(-c4ncc(-c5ccccc5)[nH]4)c3)C2)CC(C)(C)N1 [Compound 21] | 0.001 to 1 nM | 0.86 nM | 
30 | Cc1ccc(Nc2cccc3c2CCN(S(C)(=O)=O)C3)cc1C(=O)Nc1ccc(C(F)(F)F)cc1 [Compound 184] | 0.001 to 1 nM | 0.7 nM | 
31 | Cc1ccc(Nc2cccc3c2CCN(S(C)(=O)=O)C3)cc1-c1cc(F)ccn1 [Compound 217] | 1 to 10 nM |  | 
32 | COc1ccc(-c2cnc(-c3cc(Nc4cccc5c4CCN(S(C)(=O)=O)C5)ccc3C)[nH]2)cn1 [Compound 100] | 0.001 to 1 nM |  | 
33 | COC(=O)c1ccc(-c2cc(Nc3cccc4c3CCN(S(C)(=O)=O)C4)ccc2C)cc1 [Compound 141] | 100 to 1000 nM |  | 
34 | Cc1ccc(Nc2cccc3c2CCN(CCS(C)(=O)=O)C3)cc1-c1cc2ccccc2cn1 [Compound 315] | 0.001 to 1 nM |  | 
35 | OCC(CO)N1CCc2c(cccc2Nc2ccc(Cl)c(-c3ncc(-c4ccccc4)[nH]3)c2)C1 [Compound 34] | 1 to 10 nM | 1.8 nM | 
36 | Cc1cnc(-c2cc(Nc3cccc4c3CCN(CCS(C)(=O)=O)C4)ccc2C)nc1 [Compound 263] | 100 to 1000 nM |  | 
37 | Cc1ccc(Nc2cccc3c2CCN(S(C)(=O)=O)C3)cc1C(=O)Nc1ccc(C#N)cc1 [Compound 160] | 0.001 to 1 nM | 1 nM | 
38 | Cc1ccc(Nc2cccc3c2CCN(S(C)(=O)=O)C3)nc1-c1ccccn1 [Compound 312] | 1 to 10 nM |  | 
39 | Cc1ccc(Nc2cccc3c2CCN(S(C)(=O)=O)C3)cc1-c1ccc(OC(F)(F)F)cc1 [Compound 137] | 10 to 100 nM |  | 
40 | Cc1ccc(Nc2cccc3c2CCN(S(C)(=O)=O)C3)cc1Oc1ccccc1 [Compound 123] | 100 to 1000 nM | 738 nM | 
41 | Cc1ccc(Nc2cccc3c2CCN(S(C)(=O)=O)C3)cc1-c1cccc(C#N)c1 [Compound 119] | 10 to 100 nM |  | 
42 | Cc1ccc(-c2cc(Nc3cccc4c3CCN(CC(C)(F)F)C4)ccc2C)nc1 [Compound 224] | 0.001 to 1 nM |  | 
43 | Cc1ccc(Nc2cccc3c2CCN(CC(C)(C)F)C3)cc1C(=O)Nc1ccccc1 [Compound 221] | 1 to 10 nM |  | 
44 | Cc1ccc(Nc2cccc3c2CCN(S(C)(=O)=O)C3)cc1OCc1ccccc1 [Compound 130] | 1 to 10 nM |  | 
45 | Clc1ccc(Nc2cccc3c2CCN(Cc2cccnc2)C3)cc1-c1ncc(-c2ccccc2)[nH]1 [Compound 51] | 10 to 100 nM | 11 nM | 
46 | COc1cccc(-c2cc(Nc3cccc4c3CCN(S(C)(=O)=O)C4)ccc2C)n1 [Compound 165] | 100 to 1000 nM |  | 
47 | Cc1ccc(Nc2nccc3c2CCN(S(C)(=O)=O)C3)cc1-c1ccc(F)cn1 [Compound 244] | 100 to 1000 nM |  | 
48 | Cc1ccc(Nc2cccc3c2CCN(C2CCS(=O)(=O)C2)C3)cc1-c1cc2ccccc2cn1 (centres unmarked) [Compound 324] | 0.001 to 1 nM |  | 

Row | SMILES | IC50 [1] | IC50 [2] | IC50 (enzymatic and cellular assays for the inhibition of hedgehog signaling pathways, read-out: IC50 Ranges)
49 | Cc1ccc(Nc2cccc3c2CCN(S(C)(=O)=O)C3)cc1-c1nc2ccccc2o1 [Compound 105] | 1 to 10 nM |  | 
50 | Cc1ccc(Nc2cccc3c2CCN(S(C)(=O)=O)C3)cc1-c1ccc(C(F)(F)F)cn1 [Compound 153] |  |  | 0.001 to 1 nM
51 | CCN1CCC(N2CCc3c(Nc4ccc(Cl)c(-c5ncc(-c6ccccc6)[nH]5)c4)cccc3C2=O)CC1 [Compound 32] | 1 to 10 nM |  | 
52 | Cc1ccc(Nc2ncnc3c2CCN(C2CCS(=O)(=O)CC2)C3)cc1-c1cc2ccccc2cn1 [Compound 342] | 1 to 10 nM |  | 
53 | Cc1ccc(-c2nc(Nc3cccc4c3CCN(C3CS(=O)(=O)C3)C4)ccc2Cl)nc1 [Compound 317] | 0.001 to 1 nM |  | 
54 | Cc1ccc(Nc2cccc3c2CCN(S(C)(=O)=O)C3)cc1-c1ccc(F)cc1 [Compound 122] | 100 to 1000 nM |  | 
55 | Cc1ccc(Nc2cccc3c2CCN(CCS(C)(=O)=O)C3)cc1-c1ccc(F)cn1 [Compound 232] | 1 to 10 nM |  | 
56 | CS(=O)(=O)N1CCc2c(cccc2Nc2ccc(C(=O)O)c(-c3ccc(C#N)cc3)c2)C1 [Compound 172] | > 10000 nM |  | 
57 | CC(C)N1CCc2c(cccc2Nc2ccc(Cl)c(-c3ncc(-c4ccccc4)[nH]3)c2)C1 [Compound 46] | 1 to 10 nM |  | 
58 | O=C(C(O)CO)N1CCc2c(cccc2Nc2ccc(Cl)c(-c3ncc(-c4ccccc4)[nH]3)c2)C1 (centres unmarked) [Compound 9] | 0.001 to 1 nM |  | 
59 | CS(=O)(=O)CCN1CCc2c(cccc2Nc2ccc(Cl)c(-c3ccc(F)cn3)n2)C1 [Compound 302] | 10 to 100 nM |  | 
60 | Cc1cnc(-c2cc(Nc3cccc4c3CCN(S(C)(=O)=O)C4)ccc2C)c(F)c1 [Compound 228] | 0.001 to 1 nM |  | 
61 | Clc1ccc(Nc2cccc3c2CCN(CC2CCCCC2)C3)cc1-c1ncc(-c2ccccc2)[nH]1 [Compound 23] | 1 to 10 nM | 2 nM | 
62 | CS(=O)(=O)N1CCc2c(cccc2Nc2cc(C(=O)Nc3ccccc3)c(Cl)cn2)C1 [Compound 203] | 1 to 10 nM |  | 
63 | COc1ccc(-c2cc(Nc3cccc4c3CCN(C3CCS(=O)(=O)CC3)C4)ccc2C)nn1 [Compound 306] | 1 to 10 nM |  | 
64 | Cc1ccc(Nc2ncnc3c2CCN(S(C)(=O)=O)C3)cc1-c1ccc(F)cn1 [Compound 298] | 10 to 100 nM |  | 
65 | Cc1ccc(Nc2cccc3c2CCN(C2CCS(=O)(=O)C2)C3)cc1-c1ccc(F)cn1 (centres unmarked) [Compound 250] | 0.001 to 1 nM |  | 
66 | Cc1ccc(Nc2cccc3c2CCN(S(C)(=O)=O)C3)cc1-c1ccc(C(=O)N(C)C)cc1 [Compound 138] | 100 to 1000 nM |  | 
67 | CS(=O)(=O)N1CCc2c(cccc2Nc2ccc(CO)c(-c3ccc(C#N)cc3)c2)C1 [Compound 178] | 100 to 1000 nM |  | 
68 | Clc1ccc(Nc2cccc3c2CCN(CC2CCOCC2)C3)cc1-c1ncc(-c2ccccc2)[nH]1 [Compound 39] | 0.001 to 1 nM |  | 
69 | OC[C@@H](O)CN1CCc2c(cccc2Nc2ccc(Cl)c(-c3ncc(-c4ccccc4)[nH]3)c2)C1 [Compound 93] | 1 to 10 nM |  | 
70 | CNC(=O)c1cccc(-c2cc(Nc3cccc4c3CCN(S(C)(=O)=O)C4)ccc2C)c1 [Compound 135] | 1000 to 10000 nM | 4180 nM | 
71 | Cc1ccc(-c2cc(Nc3cccc4c3CCN([C@H]3CCS(=O)(=O)C3)C4)ccc2C)nc1 [Compound 280] | 0.001 to 1 nM |  | 
72 | COc1ccc(-c2cc(Nc3cccc4c3CCN(S(C)(=O)=O)C4)ccc2C)cc1 [Compound 99] | 10 to 100 nM |  | 
